Values quoted from earlier work, collected in US20140228595A1, “PROCESSES FOR PRODUCING HEXANEDIOL (HDO), HEXAMETHYLENEDIAMINE (HMD), ADIPONITRILE (ADN), ADIPAMIDE (ADM) AND DERIVATIVES THEREOF” (BioAmber S.A.S., priority 2011, published 2014).

pKa1 (Table 1, Run 1): 4.43
pKa of the second acid group of AA (second acid group): 5.1
SMILES: O=C(O)CCCCC(=O)O [AA, adipic acid]
